Like-named read-outs stand apart in the source and are kept apart here.
How the values were obtained:
Type in all cases: in vivo
Leptosphaeria nodorum = Leptosphaeria nodorum test (wheat)/preventive; conditions: Table C1
Method: (§1) Solvent: 49 parts by weight of N,N-dimethylacetamide Emulsifier: 1 part by weight of alkylaryl polyglycol ether To produce a suitable preparation of active compound, 1 part by weight of active compound or active compound combination is mixed with the stated amounts of solvent and emulsifier, and the concentrate is diluted with water to the desired concentration. To test for preventive activity, young plants are sprayed with the preparation of active compound or active compound combination at the stated rate of application. After the spray coating has been dried, the plants are sprayed with a spore suspension of Leptosphaeria nodorum.

Phakopsora pachyrhizi = assay: Phakopsora test (soybeans)/preventive; conditions: for pest or weed control at 0.5 ppm: application rate 0.5 ppm a.i.
Septoria tritici = assay: Septoria tritici-test (wheat)/preventive; conditions: Table F1
Method: as §1, with “Septoria tritici.” for “Leptosphaeria nodorum.”

Sphaerotheca fuliginea = assay: Sphaerotheca test (cucumbers)/preventive; conditions: Table G1
Method: (§2) Solvent: 24.5 parts by weight of acetone • 24.5 parts by weight of dimethylacetamide Emulsifier: 1 part by weight of alkylaryl polyglycol ether To produce a suitable preparation of active compound, 1 part by weight of active compound is mixed with the stated amounts of solvent and emulsifier, and the concentrate is diluted with water to the desired concentration. To test for preventive activity, young plants are sprayed with the preparation of active compound at the stated rate of application. After the spray coating has dried on, the plants are inoculated with an aqueous spore suspension of Sphaerotheca fuliginea.

Uromyces appendiculatus = assay: Uromyces test (beans)/preventive; conditions: for pest or weed control at 0.5 ppm: application rate 0.5 ppm a.i.; for pest or weed control at 0.2 ppm: application rate 0.2 ppm a.i.; for Efficacy in % found: application rate 20 ppm a.i.
Method: (§3) Solvent: 24.5 parts by weight of acetone • 24.5 parts by weight of dimethylacetamide
(§4) Emulsifier: 1 part by weight of alkylaryl polyglycol ether
(§5) To produce a suitable preparation of active compound, 1 part by weight of active compound is mixed with the stated amounts of solvent and emulsifier, and the concentrate is diluted with water to the desired concentration.
(§6) To test for preventive activity, young plants are sprayed with the preparation of active compound at the stated rate of application. After the spray coating has dried on, the plants are inoculated with an aqueous spore suspension of the causal agent of bean rust (Uromyces appendiculatus) and then remain for 1 day in an incubation cabinet at approximately 20° C. and a relative atmospheric humidity of 100%.
The plants are then placed in a greenhouse at approximately 21° C. and a relative atmospheric humidity of approximately 90%.
The test is evaluated 10 days after the inoculation. 0% means an efficacy which corresponds to that of the untreated control, while an efficacy of 100% means that no disease is observed.

Alternaria solani = assay: Alternaria test (tomatoes)/preventive
Method: as §3, §4, §5
as §6, with “Alternaria solani. The plants are” for “the causal agent of bean rust (Uromyces appendiculatus) and”, “placed” for “remain for 1 day”
The test is evaluated 3 days after the inoculation. 0% means an efficacy which corresponds to that of the untreated control while an efficacy of 100% means that no disease is observed.

Venturia inaequalis = assay: Venturia test (apples)/preventive; conditions: Table I1
Method: as §2, with “application.” for “application. After the spray coating has dried on, the plants are inoculated with an aqueous spore suspension of Sphaerotheca fuliginea.”

[1] = tested on: Blumeria graminis f.sp. hordei; assay: Blumeria test (barley)/preventive; conditions: Table B1; application rate 160 ppm a.i.
Method: Solvent: 49 parts by weight of N,N-dimethylacetamide Emulsifier: 1 part by weight of alkylaryl polyglycol ether To produce a suitable preparation of active compound, 1 part by weight of active compound or active compound combination is mixed with the stated amounts of solvent and emulsifier, and the concentrate is diluted with water to the desired concentration. To test for preventive activity, young plants are sprayed with the preparation of active compound or active compound combination at the stated rate of application. After the spray coating has been dried, the plants are dusted with spores of Blumeria graminis f.sp. hordei.

Pyrenophora teres = assay: Pyrenophora teres-test (barley)/preventive; conditions: Table E1; application rate 160 ppm a.i.
Method: Solvent: 49 parts by weight of N,N-dimethylacetamide
as §4
To produce a suitable preparation of active compound, 1 part by weight of active compound or active compound combination is mixed with the stated amounts of solvent and emulsifier, and the concentrate is diluted with water to the desired concentration.
To test for preventive activity, young plants are sprayed with the preparation of active compound or active compound combination at the stated rate of application.
After the spray coating has been dried, the plants are sprayed with a spore suspension of Pyrenophora teres. The plants remain for 48 hours in an incubation cabinet at approximately 20° C. and a relative atmospheric humidity of approximately 100%.
The plants are placed in the greenhouse at a temperature of approximately 20° C. and a relative atmospheric humidity of approximately 80%.
The test is evaluated 8 days after the inoculation. 0% means an efficacy which corresponds to that of the untreated control, while an efficacy of 100% means that no disease is observed.

[2] = Phakopsora pachyrhizi, 168 h, Table D1, read-out: Efficacy in % found
[3] = Uromyces appendiculatus, 240 h, Table H2, read-out: Efficacy in % found
[4] = Table A2, application rate 5 ppm a.i.
[5] = Table A3, application rate 20 ppm a.i.

Fc1ccc([C@]2(Cn3cncn3)O[C@H]2c2ccccc2Cl)cc1 (racemic) [1.12, epoxiconazole]
Efficacy in % found (Leptosphaeria nodorum; application rate 40 ppm a.i.): 60% | pest or weed control at 0.5 ppm (Phakopsora pachyrhizi; [2]): 23% | Efficacy in % found (Septoria tritici; application rate 40 ppm a.i.): 14% | Efficacy in % found (Sphaerotheca fuliginea; application rate 1 ppm a.i.): 0% | pest or weed control at 0.5 ppm (Uromyces appendiculatus; [3]): 30%

CC(C1CC1)C(O)(Cn1cncn1)c1ccc(Cl)cc1 (stereo not drawn) [1.5, cyproconazole]
Efficacy in % found (Alternaria solani; [4]): 23% | Efficacy in % found (Septoria tritici; application rate 80 ppm a.i.): 0% | Efficacy in % found (Sphaerotheca fuliginea; application rate 1.25 ppm a.i.): 52% | pest or weed control at 0.5 ppm (Uromyces appendiculatus; [3]): 50%

Cn1c(=O)c2sc3c(=O)n(C)c(=O)c3sc2c1=O [15.61, 2,6-dimethyl-1H,5H-[1,4]dithiino[2,3-c:5,6-c′]dipyrrole-1,3,5,7(2H,6H)-tetrone]
Efficacy in % found (Leptosphaeria nodorum; application rate 800 ppm a.i.): 20% | pest or weed control at 100 ppm (Phakopsora pachyrhizi; Phakopsora pachyrhizi, 168 h, Table D3, application rate 100 ppm a.i., read-out: Efficacy in % found): 8% | Efficacy in % found (Septoria tritici; application rate 800 ppm a.i.): 0% | Efficacy in % found (Sphaerotheca fuliginea; application rate 100 ppm a.i.): 69% | pest or weed control at 100 ppm (Uromyces appendiculatus; Uromyces appendiculatus, 240 h, Table H3, application rate 100 ppm a.i., read-out: Efficacy in % found): 0% | Efficacy in % found (Venturia inaequalis; application rate 50 ppm a.i.): 84%

CCN(C)/C=N/c1cc(C)c(Oc2nc(Cl)c(Cl)s2)cc1C [(Ie)]
Efficacy in % found (Alternaria solani; Table A1, application rate 0.5 ppm a.i.): 0% | Efficacy in % found (Alternaria solani; Table A1, application rate 1 ppm a.i.): 16% | Efficacy in % found (Alternaria solani; [4]): 0% | Efficacy in % found (Alternaria solani; Table A3, application rate 1 ppm a.i.): 52% | Efficacy in % found [1]: 50% | Efficacy in % found (Leptosphaeria nodorum; application rate 80 ppm a.i.): 30% | Efficacy in % found (Leptosphaeria nodorum; application rate 160 ppm a.i.): 50% | pest or weed control at 0.25 ppm (Phakopsora pachyrhizi; Phakopsora pachyrhizi, 168 h, Table D1, application rate 0.25 ppm a.i., read-out: Efficacy in % found): 15% | pest or weed control at 0.5 ppm (Phakopsora pachyrhizi; [2]): 35% | pest or weed control at 0.5 ppm (Phakopsora pachyrhizi; Phakopsora pachyrhizi, 168 h, Table D2, read-out: Efficacy in % found): 45% | pest or weed control at 0.5 ppm (Phakopsora pachyrhizi; Phakopsora pachyrhizi, 168 h, Table D3, read-out: Efficacy in % found): 40% | pest or weed control at 1 ppm (Phakopsora pachyrhizi; Phakopsora pachyrhizi, 168 h, Table D3, application rate 1 ppm a.i., read-out: Efficacy in % found): 65% | Efficacy in % found (Pyrenophora teres): 57% | Efficacy in % found (Septoria tritici; application rate 160 ppm a.i.): 0% | Efficacy in % found (Sphaerotheca fuliginea; application rate 0.5 ppm a.i.): 29% | Efficacy in % found (Sphaerotheca fuliginea; application rate 1 ppm a.i.): 29% | Efficacy in % found (Sphaerotheca fuliginea; application rate 1.25 ppm a.i.): 29% | pest or weed control at 0.25 ppm (Uromyces appendiculatus; Uromyces appendiculatus, 240 h, Table H1, application rate 0.25 ppm a.i., read-out: Efficacy in % found): 50% | pest or weed control at 0.05 ppm (Uromyces appendiculatus; Uromyces appendiculatus, 240 h, Table H2, application rate 0.05 ppm a.i., read-out: Efficacy in % found): 0% | pest or weed control at 0.1 ppm (Uromyces appendiculatus; Uromyces appendiculatus, 240 h, Table H2, application rate 0.1 ppm a.i., read-out: Efficacy in % found): 0% | pest or weed control at 0.2 ppm (Uromyces appendiculatus; [3]): 30% | pest or weed control at 0.2 ppm (Uromyces appendiculatus; Uromyces appendiculatus, 240 h, Table H3, read-out: Efficacy in % found): 11% | Efficacy in % found (Venturia inaequalis; application rate 0.25 ppm a.i.): 0% | Efficacy in % found (Venturia inaequalis; application rate 0.5 ppm a.i.): 0% | Efficacy in % found (Venturia inaequalis; application rate 1 ppm a.i.): 0%

chlorothalonil [5.4]
Efficacy in % found (Alternaria solani; [5]): 8% | Efficacy in % found (Septoria tritici; application rate 160 ppm a.i.): 0% | Efficacy in % found (Sphaerotheca fuliginea; application rate 20 ppm a.i.): 29% | Efficacy in % found (Uromyces appendiculatus; Table H3): 0% | Efficacy in % found (Venturia inaequalis; application rate 20 ppm a.i.): 68%

propineb [5.29]
Efficacy in % found (Alternaria solani; [5]): 12% | Efficacy in % found (Phakopsora pachyrhizi; Table D3, application rate 20 ppm a.i.): 0% | Efficacy in % found (Septoria tritici; application rate 400 ppm a.i.): 29% | Efficacy in % found (Sphaerotheca fuliginea; application rate 20 ppm a.i.): 71% | Efficacy in % found (Uromyces appendiculatus; Table H3): 56% | Efficacy in % found (Venturia inaequalis; application rate 5 ppm a.i.): 14%

Source: patent US9572343B2, “Active compound combinations” (BAYER CROPSCIENCE AG, priority 2012, dated 2017)
